Measurements taken from US11306072B2, “5-bromo-indirubins” (City of Hope, priority 2013, dated 2022).
Like-named read-outs stand apart in the source and are kept apart here.

Tests used:
[1] = tested on: A549 non-small cell lung cancer cells; assay: MTS cell viability assay, A549 lung cancer cells; type: cell-based; details: Homo sapiens, 48 h exposure, quadruplicate, read-out: IC50 values against cancer cells, A549 lung
Protocol: (§1) FIGS. 2A-2G. Effects of 5BIODs on viabilities of human cancer cells; MTS assays were performed for cell viability; human A549 non-small cell lung cancer (FIG. 2A), MDA-MB-231 and MDA-MB-468 breast cancer (FIG. 2B), A2058 melanoma (FIG. 2C), DU145 prostate cancer (FIG. 2D), SKOV3 ovarian cancer (FIG. 2E), T315I Abl mutant KCL-22 CML (FIG. 2F) and MIA-PaCa2 pancreatic cancer (FIG. 2G) cells were seeded in 96-well plates (5000/well for solid tumor cell lines and 10000 cells/well for CML cell line), incubated overnight at 37° C. in 5% (v/v) CO2 and exposed to 5BIODs at 1 μM or 10 μM concentration for 48 h; DMSO was used as the vehicle control; cell viability was determined by tetrazolium conversion to its formazan dye and absorbance was measured at 490 nm using an automated ELISA plate reader; each experiment was performed in quadruplicate. Histogram ordering: FIG. 2B depicts MDA-MB-231 (black) and MDA-MB-468 (gray), in order left to right; FIG. 2C: 1 μM (gray); 10 μM (black), in order left to right; FIG. 2D: 1 μM (gray); 10 μM (black), in order left to right;

[2] = tested on: SKOV3 ovarian cancer cells; assay: MTS cell viability assay, SKOV3 ovarian cancer cells; type: cell-based, human; details: for IC50: Homo sapiens, SK-OV-3, MTS cell viability, 48 h exposure, quadruplicate, read-out: IC50 values against cancer cells, SKOV3 ovarian; for effect on viabilities of SKOV3 ovarian cancer cells: MTS assay, FIG. 3 legend, result in words
[3] = tested on: MDA-MB-231 breast cancer cells; assay: MTS cell viability assay, MDA-MB-231 breast cancer cells; type: cell-based; details: Homo sapiens, 48 h exposure, quadruplicate, read-out: IC50 values against cancer cells, MDA-MB-231 breast
Protocol: as §1

A2058 melanoma cells = assay: MTS cell viability assay, A2058 melanoma cells; type: cell-based, human; details: quadruplicate, read-out: IC50 values against cancer cells, A2058 melanoma
Protocol: as §1

[4] = tested on: DU145 prostate cancer cells; assay: MTS cell viability assay, DU145 prostate cancer cells; type: cell-based, human; details: quadruplicate, read-out: IC50 values against cancer cells, DU145 prostate
ABL1 (T315I) = ABL1 (T315I) (Homo sapiens, UniProt P00519, T315I); assay: In vitro kinase assay with recombinant protein (33P-ATP), ABL1 (T315I); type: biochemical; details: 120 min at room temperature, read-out: IC50 against kinase activity in vitro, ABL1 (T315I)
Protocol: (§2) The kinase assays were performed with recombinant proteins. Briefly, proteins, freshly prepared substrates and ^33P-ATP (specific activity 0.01 μCi/μl final) were mixed in reaction buffer (20 mM HEPES pH 7.5, 10 mM MgCl2, 1 mM EGTA, 0.02% Brij35, 0.02 mg/ml BSA, 0.1 mM Na3VO4, 2 mM DTT) in the presence of DMSO as control or 5BIODs. The mixtures were reacted for 120 min at room temperature. Samples were transferred onto P81 ion exchange paper and filters were extensively washed with 0.75% phosphoric acid. The radioactivities were monitored.

AuroraA = target: T1, AuroraA (Homo sapiens, UniProt O14965); assay: In vitro kinase assay with recombinant protein (33P-ATP), AuroraA; type: biochemical; details: 120 min at room temperature, read-out: IC50 against kinase activity in vitro, AuroraA
T1 sequence (O14965 1-403): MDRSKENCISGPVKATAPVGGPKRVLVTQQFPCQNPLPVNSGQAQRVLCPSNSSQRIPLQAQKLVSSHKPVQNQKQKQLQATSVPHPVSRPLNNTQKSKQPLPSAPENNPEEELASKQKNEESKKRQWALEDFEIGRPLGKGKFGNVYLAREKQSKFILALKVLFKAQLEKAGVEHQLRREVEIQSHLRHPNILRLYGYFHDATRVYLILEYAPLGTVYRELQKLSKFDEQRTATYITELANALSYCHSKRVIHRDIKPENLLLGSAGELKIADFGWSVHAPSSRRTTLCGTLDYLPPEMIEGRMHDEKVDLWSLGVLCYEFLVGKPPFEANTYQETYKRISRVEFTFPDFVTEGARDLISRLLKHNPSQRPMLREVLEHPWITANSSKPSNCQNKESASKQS
Protocol: as §2

c-Src = c-Src (Homo sapiens, UniProt P12931); assay: In vitro kinase assay with recombinant protein (33P-ATP), c-Src; type: biochemical; details: 120 min at room temperature, read-out: IC50 against kinase activity in vitro, c-Src
Protocol: as §2

ABL1 = ABL1 (Homo sapiens, UniProt P00519); assay: In vitro kinase assay with recombinant protein (33P-ATP), ABL1; type: biochemical; details: 120 min at room temperature, read-out: IC50 against kinase activity in vitro, ABL1
Protocol: as §2

JAK2 = JAK2 (Homo sapiens, UniProt O60674); assay: In vitro kinase assay with recombinant protein (33P-ATP), JAK2; type: biochemical; details: 120 min at room temperature, read-out: IC50 against kinase activity in vitro, JAK2
Protocol: as §2

TYK2 = TYK2 (Homo sapiens, UniProt P29597); assay: In vitro kinase assay with recombinant protein (33P-ATP), TYK2; type: biochemical; details: 120 min at room temperature, read-out: IC50 against kinase activity in vitro, TYK2
Protocol: as §2

[5] = tested on: MIA-PaCa2 pancreatic cancer cells; assay: MTS cell viability assay, MIA-PaCa2 pancreatic cancer cells; type: cell-based; details: Homo sapiens, 48 h exposure, quadruplicate, read-out: IC50 values against cancer cells, PaCa2 pancreatic
Protocol: as §1

[6] = tested on: T315I Abl mutant KCL-22 CML cells; assay: MTS cell viability assay, T315I Abl mutant KCL-22 CML cells; type: cell-based; details: Homo sapiens, 48 h exposure, quadruplicate, read-out: IC50 values against cancer cells, T315l Alb mutant KCL-22 CML
Protocol: as §1

[7] = Homo sapiens, A2058, 48 h exposure
[8] = Homo sapiens, DU-145, 48 h exposure
[9] = Homo sapiens, A2058, 48 h, 48 h exposure
[10] = Homo sapiens, DU-145, 48 h, 48 h exposure

Chain of c-Src (P12931 whole entry): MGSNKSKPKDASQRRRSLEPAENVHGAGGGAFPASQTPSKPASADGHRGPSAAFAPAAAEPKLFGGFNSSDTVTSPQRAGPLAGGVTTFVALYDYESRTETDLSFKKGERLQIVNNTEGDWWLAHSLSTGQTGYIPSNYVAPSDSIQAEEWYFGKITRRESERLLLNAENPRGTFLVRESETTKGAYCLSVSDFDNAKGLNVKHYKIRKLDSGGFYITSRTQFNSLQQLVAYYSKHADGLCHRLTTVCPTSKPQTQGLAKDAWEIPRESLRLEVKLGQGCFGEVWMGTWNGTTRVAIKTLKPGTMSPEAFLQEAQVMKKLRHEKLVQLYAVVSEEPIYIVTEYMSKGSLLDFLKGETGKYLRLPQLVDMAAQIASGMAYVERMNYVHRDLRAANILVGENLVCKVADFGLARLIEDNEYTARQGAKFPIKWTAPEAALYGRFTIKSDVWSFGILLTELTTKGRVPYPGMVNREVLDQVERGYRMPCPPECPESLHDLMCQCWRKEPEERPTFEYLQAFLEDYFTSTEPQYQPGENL
Chain of JAK2 (O60674 whole entry): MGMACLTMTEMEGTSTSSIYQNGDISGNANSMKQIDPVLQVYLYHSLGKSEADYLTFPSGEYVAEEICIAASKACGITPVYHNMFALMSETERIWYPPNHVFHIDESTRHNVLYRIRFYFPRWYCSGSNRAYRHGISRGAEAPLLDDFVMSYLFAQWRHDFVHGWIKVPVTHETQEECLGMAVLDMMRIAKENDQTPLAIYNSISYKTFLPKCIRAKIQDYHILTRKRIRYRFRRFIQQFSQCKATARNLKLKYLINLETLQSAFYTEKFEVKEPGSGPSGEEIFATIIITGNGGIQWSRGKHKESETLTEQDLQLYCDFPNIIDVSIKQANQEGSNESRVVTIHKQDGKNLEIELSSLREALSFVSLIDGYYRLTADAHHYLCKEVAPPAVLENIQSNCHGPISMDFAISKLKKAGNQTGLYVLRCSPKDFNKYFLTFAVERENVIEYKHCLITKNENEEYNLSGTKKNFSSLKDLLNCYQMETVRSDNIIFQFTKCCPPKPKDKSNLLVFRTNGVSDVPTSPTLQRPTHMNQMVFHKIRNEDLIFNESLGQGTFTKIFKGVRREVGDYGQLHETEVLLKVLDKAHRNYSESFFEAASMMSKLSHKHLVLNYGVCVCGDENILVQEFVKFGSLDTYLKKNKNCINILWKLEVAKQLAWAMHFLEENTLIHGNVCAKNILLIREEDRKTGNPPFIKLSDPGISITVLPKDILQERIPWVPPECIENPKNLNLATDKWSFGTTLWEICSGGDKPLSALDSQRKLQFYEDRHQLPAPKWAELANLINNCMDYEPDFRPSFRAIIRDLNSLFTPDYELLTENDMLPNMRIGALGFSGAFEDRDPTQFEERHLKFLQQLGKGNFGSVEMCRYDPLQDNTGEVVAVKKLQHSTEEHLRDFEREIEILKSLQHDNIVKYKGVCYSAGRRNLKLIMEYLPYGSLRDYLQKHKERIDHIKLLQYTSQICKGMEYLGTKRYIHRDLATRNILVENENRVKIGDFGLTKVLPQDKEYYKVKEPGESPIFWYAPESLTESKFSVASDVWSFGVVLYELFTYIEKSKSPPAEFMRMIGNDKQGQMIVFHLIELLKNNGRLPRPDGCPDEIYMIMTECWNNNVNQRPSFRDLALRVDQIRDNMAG
Chain of TYK2 (P29597 whole entry): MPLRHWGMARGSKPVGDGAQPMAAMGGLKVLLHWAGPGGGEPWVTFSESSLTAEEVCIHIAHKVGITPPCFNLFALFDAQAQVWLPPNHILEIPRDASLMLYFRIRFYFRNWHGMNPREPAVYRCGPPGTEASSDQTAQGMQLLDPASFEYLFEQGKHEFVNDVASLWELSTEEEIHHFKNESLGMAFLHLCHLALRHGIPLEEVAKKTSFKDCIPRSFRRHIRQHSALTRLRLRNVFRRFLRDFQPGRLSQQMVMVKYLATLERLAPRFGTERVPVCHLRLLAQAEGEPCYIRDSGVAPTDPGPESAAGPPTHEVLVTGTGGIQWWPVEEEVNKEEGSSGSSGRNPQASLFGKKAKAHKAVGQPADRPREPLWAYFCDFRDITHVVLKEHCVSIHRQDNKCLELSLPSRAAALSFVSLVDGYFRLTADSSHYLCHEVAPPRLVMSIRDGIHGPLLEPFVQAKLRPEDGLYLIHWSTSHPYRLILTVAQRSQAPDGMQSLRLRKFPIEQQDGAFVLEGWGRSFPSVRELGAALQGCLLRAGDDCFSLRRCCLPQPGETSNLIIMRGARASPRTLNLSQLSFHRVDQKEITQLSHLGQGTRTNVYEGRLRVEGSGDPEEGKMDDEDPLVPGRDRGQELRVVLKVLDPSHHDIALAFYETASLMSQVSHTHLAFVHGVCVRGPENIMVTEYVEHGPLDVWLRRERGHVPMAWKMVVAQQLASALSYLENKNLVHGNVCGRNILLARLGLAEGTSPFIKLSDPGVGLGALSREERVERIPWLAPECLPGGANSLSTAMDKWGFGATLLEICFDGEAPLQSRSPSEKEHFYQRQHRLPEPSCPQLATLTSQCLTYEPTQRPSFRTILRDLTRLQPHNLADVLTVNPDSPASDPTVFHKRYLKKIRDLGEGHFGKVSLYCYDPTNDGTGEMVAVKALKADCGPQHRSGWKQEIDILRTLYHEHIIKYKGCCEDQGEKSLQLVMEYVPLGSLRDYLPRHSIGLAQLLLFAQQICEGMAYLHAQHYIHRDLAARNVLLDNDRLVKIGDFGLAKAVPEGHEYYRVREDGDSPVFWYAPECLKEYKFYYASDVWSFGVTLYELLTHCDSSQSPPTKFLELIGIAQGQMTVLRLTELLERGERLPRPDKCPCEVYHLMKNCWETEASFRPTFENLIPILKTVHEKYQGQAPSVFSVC

Row | SMILES | IC50 [1] | IC50 [2] | IC50 [3] | IC50 (A2058 melanoma cells; [7]) | IC50 [4, 8] | IC50 (ABL1 (T315I)) | IC50 (AuroraA) | IC50 (c-Src) | IC50 (A2058 melanoma cells; 48 h exposure) | IC50 (ABL1) | IC50 (JAK2) | IC50 ([4]; 48 h exposure) | IC50 (TYK2) | IC50 [5] | IC50 [6] | IC50 (A2058 melanoma cells; [9]) | IC50 [4, 10] | effect on viabilities of SKOV3 ovarian cancer cells [2]
1 | CN1CCN(CCO/N=C2/C(=C3/C(=O)Nc4ccc(Br)cc43)Nc3ccccc32)CC1 [Compound 1284] | 440 nM | 1360 nM | 1000 nM | – | – | – | – | – | – | – | – | – | – | – | – | – | – | –
2 | CN(C)CCO/N=C1/C(=C2/C(=O)Nc3ccc(Br)cc32)Nc2ccccc21 [Compound 1501] | – | – | – | 880 nM | 320 nM | – | – | – | – | – | – | – | – | – | – | – | – | –
3 | CN(CCO/N=C1/C(=C2/C(=O)Nc3ccc(Br)cc32)Nc2ccccc21)CC(O)CO (centres unmarked) [Compound 1279] | – | – | – | – | – | 5550 nM | 301 nM | 69.6 nM | 2200 nM | 1440 nM | 410 nM | 2000 nM | 62.7 nM | – | – | – | – | –
4 | O=C1Nc2ccc(Br)cc2C1=C1Nc2ccccc2C1=NOCCN1CCCC1 [Compound 1281] | 400 nM | 750 nM | 370 nM | 1800 nM | 660 nM | 7080 nM | 2050 nM | 19.7 nM | – | 2500 nM | 264 nM | – | 21 nM | 440 nM | 580 nM | – | – | –
5 | O=C1Nc2ccc(Br)cc2/C1=C1/Nc2ccccc2/C1=N\OCCN1CCCC1 [Compound 1280] | 840 nM | 1340 nM | 660 nM | 1600 nM | 660 nM | – | – | – | – | – | – | – | – | 960 nM | 860 nM | – | – | –
6 | CCN(CC)CCON=C1C(=C2C(=O)Nc3ccc(Br)cc32)Nc2ccccc21 [Compound 1277] | – | – | – | – | – | > 10000 nM | 3310 nM | 95.4 nM | – | 4770 nM | 1250 nM | – | 146 nM | – | – | 1900 nM | 770 nM | –
7 | CCN(CC)CCO/N=C1/C(=C2/C(=O)Nc3ccc(Br)cc32)Nc2ccccc21 [Compound 1276] | 470 nM | 410 nM | 300 nM | – | – | 6580 nM | 954 nM | 34.3 nM | – | 1020 nM | 526 nM | – | 31.6 nM | 1200 nM | 300 nM | 360 nM | 420 nM | reduce viabilities
8 | O=C1Nc2ccc(Br)cc2/C1=C1/Nc2ccccc2/C1=N\OCCN1CCN(CCO)CC1 [Compound 1282] | 500 nM | 770 nM | 780 nM | – | 910 nM | – | – | – | – | – | – | – | – | 1000 nM | – | – | – | –
9 | CN(CCO/N=C1/C(=C2/C(=O)Nc3ccc(Br)cc32)Nc2ccccc21)CC(O)CO (centres unmarked) [Compound 1278] | 600 nM | 750 nM | 710 nM | – | – | 1550 nM | 122 nM | 12.1 nM | – | 392 nM | 104 nM | 780 nM | 27 nM | 2500 nM | 500 nM | 1700 nM | – | –
10 | O=C1Nc2ccc(Br)cc2C1=C1Nc2ccccc2C1=NOCCN1CCNCC1 [Compound 1289] | 380 nM | 460 nM | 400 nM | 1100 nM | 690 nM | 214 nM | 143 nM | 3.7 nM | – | 71.4 nM | 47.6 nM | – | 20.1 nM | 460 nM | 600 nM | – | – | reduce viabilities
11 | O=C1Nc2ccc(Br)cc2/C1=C1/Nc2ccccc2/C1=N\OCCN1CCN(CCOCCO)CC1 [Compound 1286] | 930 nM | 1840 nM | 1360 nM | – | – | – | – | – | – | – | – | – | – | – | – | – | – | –
12 | CCCN(CCC)CCO/N=C1/C(=C2/C(=O)Nc3ccc(Br)cc32)Nc2ccccc21 [Compound 1502] | – | – | – | 1700 nM | 1500 nM | – | – | – | – | – | – | – | – | – | – | – | – | –
